From patent US8129530B2, “Catecholamine derivatives and prodrugs thereof” (H. Lundbeck A/S, priority 2007, dated 2012)

Columns and labels:
PD patients = settings: intravenous (IV); cited from earlier work
[1] = test system: mouse model of severe dopamine depletion; test: Superiority model; format: in vivo; settings: mice
Source text: Both Apomorphine and L-DOPA stimulate D1 and D2-like dopamine receptors.

Compound | antiparkinson efficacy (PD patients) | reversal of motility deficits / restoration of locomotion [1]
CCCc1cc2c(s1)CN[C@@H]1CCc3cc(OC(C)=O)c(OC(C)=O)cc3[C@@H]21 [Adrogolide] | comparable to that of L-DOPA | 
CN1CCc2cccc3c2[C@H]1Cc1ccc(O)c(O)c1-3 [Apomorphine] |  | able to reverse motility deficits
N[C@@H](Cc1ccc(O)c(O)c1)C(=O)O [L-DOPA, (levo)-3,4-dihydroxy phenylalanine] |  | able to reverse motility deficits
